Data published in ChEMBL document CHEMBL5727779, “Compounds for inhibiting AGC kinase and pharmaceutical compositions comprising the same” (2020).

Key:
[1] = target: Rho-associated protein kinase 2 (Homo sapiens, UniProt O75116); assay: (§1) ELISA Assay: ROCK Substrate Coated Plate (Part No 241601): One strip well 96-well plate pre-coated with recombinant MYPT1.Buffer: 25 mM Tris, pH 7.5, 10 mM MgCl2, 5 mM Glycerol-2-Phosphate, 0.1 mM Na3VO4; 1% DMSO; 2.5 mM DTT; (Enzyme: ROCK active-II) (Cell Biolabs, Catalog #STA-406, Part No. 241505) 0.1 ng/μl.ATP Solution (Part No. 241604): 100 mM ATP. Final concentration of ATP in reaction mixture: 250 μM.Anti-phospho-MYPT1 (Thr696) (Part No. 241603).Secondary Antibody, HRP Conjugate (Part No. 231003).Biotinylated substrate, diluted to 0.25 μM with buffer described above (without ATP).Steps:1. Purified kinase or cell lysate sample can be used directly in the kinase assay or further diluted with 1× Kinase Buffer. Each sample should be assayed in duplicate.2. Add 90 μL of the diluted active ROCK-II positive control or unknown ROCK samples to the wells of the substrate plate.3. Initiate the kinase reaction by adding 10 μL of the 10× Kinase Reaction Buffer containing DTT and ATP. Mix well.4. Cover with a plate cover and incubate the wells at 30° C. for 30-60 minutes with gentle agitation.5. Stop kinase reaction by flicking out the content or by adding 50 μL of 0.5M EDTA, pH 8.0, to each well.6. Remove the plate cover and empty wells. Wash microwell strips 3 times with 250 μL 1× Wash Buffer per well with thorough aspiration between each wash. After the last wash, empty wells and tap microwell strips on absorbent pad or paper towel to remove excess 1× Wash Buffer.7. Add 100 μL of the diluted anti-phospho-MYPT1 (Thr696) antibody to each well.8. Cover with the plate cover and incubate at room temperature for 1 hour on an orbital shaker.9. Remove the plate cover and empty wells. Wash the strip wells 3 times according to step 6 above.10. Add 100 μL of the diluted HRP-conjugated secondary antibody to each well.11. Cover with the plate cover and incubate at room temperature for 1 hour on an orbital shaker.12. Remove the plate cover and empty wells. Wash microwell strips 3 times according to step 6 above. Proceed immediately to the next step.13. Warm Substrate Solution to room temperature. Add 100 μL of Substrate Solution to each well, including the blank wells. Incubate at room temperature for 5-20 minutes on an orbital shaker.14. Stop the enzyme reaction by adding 100 μL of Stop Solution into each well, including the blank wells. Results should be read immediately (color will fade over time).15. Read absorbance of each microwell on a spectrophotometer using 450 nm as the primary wave length.
Chain of Rho-associated protein kinase 2 (O75116 whole entry): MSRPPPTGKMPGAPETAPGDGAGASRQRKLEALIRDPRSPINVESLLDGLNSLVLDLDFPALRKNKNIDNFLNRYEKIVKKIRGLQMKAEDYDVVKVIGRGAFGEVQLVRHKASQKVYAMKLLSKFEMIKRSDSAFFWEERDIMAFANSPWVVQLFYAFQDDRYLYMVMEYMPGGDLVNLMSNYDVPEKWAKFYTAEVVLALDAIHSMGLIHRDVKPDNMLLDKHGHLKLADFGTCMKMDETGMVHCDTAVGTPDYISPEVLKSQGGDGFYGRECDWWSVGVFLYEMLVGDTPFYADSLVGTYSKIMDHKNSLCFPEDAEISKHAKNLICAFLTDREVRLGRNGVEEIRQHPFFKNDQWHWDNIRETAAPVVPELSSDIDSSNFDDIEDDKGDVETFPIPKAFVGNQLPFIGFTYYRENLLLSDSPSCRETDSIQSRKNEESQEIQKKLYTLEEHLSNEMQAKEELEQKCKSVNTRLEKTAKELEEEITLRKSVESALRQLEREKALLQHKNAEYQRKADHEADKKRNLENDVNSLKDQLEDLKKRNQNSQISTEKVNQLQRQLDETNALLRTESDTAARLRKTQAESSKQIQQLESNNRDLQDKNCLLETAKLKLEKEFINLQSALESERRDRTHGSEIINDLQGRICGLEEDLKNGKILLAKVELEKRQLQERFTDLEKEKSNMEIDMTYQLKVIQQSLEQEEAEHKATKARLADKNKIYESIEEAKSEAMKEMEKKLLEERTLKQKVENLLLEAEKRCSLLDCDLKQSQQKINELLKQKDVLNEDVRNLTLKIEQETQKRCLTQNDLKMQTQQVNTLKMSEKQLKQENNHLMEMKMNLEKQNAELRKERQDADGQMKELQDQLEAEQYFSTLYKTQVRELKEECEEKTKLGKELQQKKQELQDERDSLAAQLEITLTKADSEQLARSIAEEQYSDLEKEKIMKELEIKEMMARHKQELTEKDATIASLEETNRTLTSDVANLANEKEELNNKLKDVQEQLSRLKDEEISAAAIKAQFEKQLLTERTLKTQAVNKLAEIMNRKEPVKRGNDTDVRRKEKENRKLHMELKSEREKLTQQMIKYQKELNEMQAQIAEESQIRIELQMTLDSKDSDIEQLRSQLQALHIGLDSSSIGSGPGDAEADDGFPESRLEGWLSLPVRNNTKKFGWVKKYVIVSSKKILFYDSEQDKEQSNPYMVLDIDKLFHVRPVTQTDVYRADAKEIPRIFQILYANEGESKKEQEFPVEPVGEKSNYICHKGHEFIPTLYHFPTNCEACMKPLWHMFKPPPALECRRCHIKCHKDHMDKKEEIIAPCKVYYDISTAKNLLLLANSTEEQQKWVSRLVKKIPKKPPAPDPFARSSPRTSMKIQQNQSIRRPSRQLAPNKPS

[2] = target: Rho-associated protein kinase 1 (Homo sapiens, UniProt Q13464); assay: as §1
Chain of Rho-associated protein kinase 1 (Q13464 whole entry): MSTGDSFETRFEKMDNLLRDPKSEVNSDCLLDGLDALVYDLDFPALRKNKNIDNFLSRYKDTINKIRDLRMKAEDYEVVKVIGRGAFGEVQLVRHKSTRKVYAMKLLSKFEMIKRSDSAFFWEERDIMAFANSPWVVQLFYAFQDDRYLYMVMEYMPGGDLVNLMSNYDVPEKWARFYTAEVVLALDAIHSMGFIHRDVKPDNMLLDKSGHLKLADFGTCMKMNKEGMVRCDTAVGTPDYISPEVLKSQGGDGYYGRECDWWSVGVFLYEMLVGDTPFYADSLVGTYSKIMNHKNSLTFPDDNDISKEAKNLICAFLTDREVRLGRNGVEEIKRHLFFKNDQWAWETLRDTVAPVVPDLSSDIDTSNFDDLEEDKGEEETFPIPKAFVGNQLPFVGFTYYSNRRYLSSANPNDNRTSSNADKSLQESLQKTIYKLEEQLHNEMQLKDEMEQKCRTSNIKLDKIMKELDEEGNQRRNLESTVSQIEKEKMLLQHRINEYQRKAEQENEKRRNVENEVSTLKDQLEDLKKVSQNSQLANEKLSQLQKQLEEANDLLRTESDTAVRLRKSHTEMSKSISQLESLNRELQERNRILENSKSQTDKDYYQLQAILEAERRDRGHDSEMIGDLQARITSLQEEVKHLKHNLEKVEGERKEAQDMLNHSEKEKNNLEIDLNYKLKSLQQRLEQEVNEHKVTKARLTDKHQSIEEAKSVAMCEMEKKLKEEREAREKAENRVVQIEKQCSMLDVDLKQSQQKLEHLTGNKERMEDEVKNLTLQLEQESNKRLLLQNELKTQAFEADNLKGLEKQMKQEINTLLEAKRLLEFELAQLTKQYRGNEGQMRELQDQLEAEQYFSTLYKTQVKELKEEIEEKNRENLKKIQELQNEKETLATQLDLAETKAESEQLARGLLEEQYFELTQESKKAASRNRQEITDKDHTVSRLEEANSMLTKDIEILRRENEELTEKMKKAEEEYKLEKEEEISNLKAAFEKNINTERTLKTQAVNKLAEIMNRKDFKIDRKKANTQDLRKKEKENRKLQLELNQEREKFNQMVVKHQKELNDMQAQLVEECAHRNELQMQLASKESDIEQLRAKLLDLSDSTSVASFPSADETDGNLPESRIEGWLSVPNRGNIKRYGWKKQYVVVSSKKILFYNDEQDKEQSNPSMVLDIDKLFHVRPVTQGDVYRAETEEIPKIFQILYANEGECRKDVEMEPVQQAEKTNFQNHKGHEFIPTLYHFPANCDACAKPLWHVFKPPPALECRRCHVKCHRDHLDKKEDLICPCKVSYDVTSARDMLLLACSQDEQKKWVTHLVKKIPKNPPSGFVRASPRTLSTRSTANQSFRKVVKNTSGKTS

Question: With CN(C)CCN(Cc1ccccc1)C(=O)Nc1ccc2cnccc2c1 as the molecule, how does the IC50 [1] read?
Answer: > 1 µM

Question: Which IC50 [1] does the source give for COC(=O)c1ccc(CN(CCO)C(=O)Nc2ccc3cnccc3c2)cc1 here?
Answer: > 1 µM

Question: For NCCN(Cc1ccc(F)cc1)C(=O)Nc1cccc2cnccc12, which IC50 [2] is on record?
Answer: > 1 µM

Question: How did the IC50 [1] turn out when CN(C)CCN(Cc1ccc(Oc2ccc(C#N)cc2)cc1)C(=O)Nc1ccc2cnccc2c1 was run?
Answer: > 1 µM
